Experimental findings from publication PMC10487437 (International Journal of Molecular Sciences, 2023) are described below.

Entries after “also recorded” stand apart in the source; their conditions may differ. Read-outs that look alike come from different tables or passages of the source. Square brackets hold non-standard residues; d marks the D form. Peptide text beside a SMILES is read from it. * marks the point of attachment. Nle = CCCC[C@H](N)C(=O)O; Cbz = O=C(OCc1ccccc1)*

Data set [1] addresses T1, 20S brain proteasome, chymotrypsin-like activity (Mus musculus, UniProt O09061+O55234).
T1 construct: from tissue; host or cells: mouse brain
Briefly: Inhibition of 20S brain proteasome hydrolysis of Suc-LLVY-AMC (chymotrypsin-like activity). In kind it is biochemical. The settings on record: 20 mM Tris-HCl pH 7.5, 1 mM DTT, 1 mM EDTA; [20S] = 50 nM; [Suc-LLVY-AMC] = 50 µM. The text has this:
(§1) Figure 7 The dependence of 20S proteasome activity on marizomib concentration during hydrolysis of peptide fluorogenic substrates. (a) hydrolysis of model oligoglutamine substrates, Dabcyl-KQ5-PPDE-EDANS (Q5) or Dabcyl-KQ10-PPDE-EDANS (Q10). (b) hydrolysis of standard coumarine-modified peptide substrates. The experimental data are approximated by the function y = A1 + (A2 − A1)/(1 + 10^(LOGx0–x)p), where A1 and A2 are the minimum and maximum values of log10(Ci), respectively, LOGx0 is the logarithm of the EC50 (the concentration giving a response half-way between the upper and lower asymptotes), and p is the Hill coefficient.

For data set [2], the target named is T2, 20S brain proteasome, caspase-like activity (Mus musculus, UniProt P70195+Q60692).
T2 construct: from tissue; host or cells: mouse brain
Briefly: Inhibition of 20S brain proteasome hydrolysis of Z-LLE-AMC (caspase-like activity). The format is biochemical. As to conditions: [20S] = 50 nM; for IC50: 20 mM Tris-HCl pH 7.5, 1 mM DTT, 1 mM EDTA, [Z-LLE-AMC] = 50 µM.
Excerpt: as §1

The subject of the next data set is T3, 20S brain proteasome.
T3 construct: from tissue; host or cells: mouse brain
The experiment in a line: Inhibition of 20S brain proteasome hydrolysis of oligoglutamine-containing FRET substrates. In kind it is biochemical, mouse. As to conditions: [20S] = 50 nM; for IC50: 20 mM Tris-HCl pH 7.5, 1 mM DTT, 1 mM EDTA.
Excerpt: as §1

The target in data set [3] is T4, 20S brain proteasome, trypsin-like activity (Mus musculus, UniProt P70195+Q9R1P1).
T4 construct: from tissue; host or cells: mouse brain
Briefly: Inhibition of 20S brain proteasome hydrolysis of Ac-RLR-AMC (trypsin-like activity). The format is biochemical. The settings on record: [20S] = 50 nM; for IC50: 20 mM Tris-HCl pH 7.5, 1 mM DTT, 1 mM EDTA, [Ac-RLR-AMC] = 50 µM.
Excerpt: as §1

Data set [4] deals with T5, 20S proteasome from murine brain.
T5 construct: from tissue; host or cells: mouse brain
The experiment in a line: Specific peptidase activity of 20S proteasome with additives (Table S1). The settings on record: 20S plus additive: 0.5 µM Bortezomib, 0.1 µM MG132, 0.02% SDS or 11S (1:2, mole:mole); 20S alone 2.37 ± 0.13; means ± SEM of three independent experiments run in duplicate. The format is biochemical, mouse. The source says: Characterization of puriﬁed proteasomes
teasomes. […] To conﬁrm that
cathepsin B [48] (Table S1).
reaction mixture for both 20S and 26S.
Table S1. Peptidase activity of the samples of 20S and 26S proteasome from murine brain.
The molar ratio between the proteasome

The test system of a further data set is 26S+11S. Briefly: 26S proteasome with 11S regulator, both isolated from mouse brains, in Tris-HCl buffer pH = 7.5 with 5 mM ATP-MgCl2. The settings on record: 37 °C, up to 72 h.
A further data set has as its system 20S+11S. Briefly: 20S proteasome with 11S regulator, both isolated from mouse brains, in Tris-HCl buffer pH = 7.5. As to conditions: 37 °C, up to 72 h.
The test system of a further data set is 26S proteasome. The experiment in a line: 26S proteasome isolated from mouse brains, in Tris-HCl buffer pH = 7.5 with 5 mM ATP-MgCl2. The settings on record: 37 °C, up to 72 h.
The next data set deals with 20S proteasome. Briefly: 20S proteasome isolated from mouse brains, in 50 mM Tris-HCl, 1 mM EDTA, 1 mM DTT, 10% glycerol, pH = 7.5. The settings on record: 37 °C, up to 72 h.
The mark [5] stands for this setting: fit of dose-response curve (Figure 7), substrate 50 µM.
[6] abbreviates: fit of dose-response curve (Figure 7).

In general, IC50 refers to the concentration at which inhibition is half-maximal. As to `C[C@@]12OC(=O)[C@]1([C@@H](O)[C@@H]1C=CCCC1)NC(=O)[C@@H]2CCCl` [Marizomib], the IC50 in data set [1] was determined as 0.0093 ± 0.0015 µM; in [2], 0.61 ± 0.04 µM; on 20S brain proteasome (substrate Dabcyl-KQ5 PPD-EDANS, read-out: IC50 of Dabcyl-KQ5 PPD-EDANS hydrolysis by 20S brain proteasome) it was 0.323 ± 0.015 µM; at 20S brain proteasome (substrate Dabcyl-KQ10 PPD-EDANS, read-out: IC50 of Dabcyl-KQ10 PPD-EDANS hydrolysis by 20S brain proteasome), 0.48 ± 0.02 µM; in data set [3], 0.111 ± 0.008 µM. Further, in [2] (setting [5]), the “Hill coefficient, inhibition of Z-LLE-AMC hydrolysis” value is “(−1.1)”. In addition, the “Hill coefficient, inhibition of Dabcyl-KQ5 PPD-EDANS hydrolysis” value in the data set with 20S brain proteasome (setting [6]) is reported as “(−0.69)”. The “Hill coefficient, inhibition of Dabcyl-KQ10 PPD-EDANS hydrolysis” value in the data set with 20S brain proteasome (setting [6]) was “(−0.39)”. Further, the “Hill coefficient, inhibition of Ac-RLR-AMC hydrolysis” value in data set [3] (setting [5]) was “(−1.51)”.

Regarding `CC(C)C[C@@H](C=O)NC(=O)[C@H](CC(C)C)NC(=O)[C@H](CC(C)C)NC(=O)OCc1ccccc1` [Z-LLL-CHO (MG132)] (Cbz-Leu-Leu-Leu-aldehyde), the concentration for half-maximal inhibition (IC50) in data set [1] is 0.012 ± 0.003 µM; in [2], 0.155 ± 0.005 µM; at 20S brain proteasome (substrate Dabcyl-KQ5 PPD-EDANS, n.d. = not detected, read-out: IC50 of Dabcyl-KQ5 PPD-EDANS hydrolysis by 20S brain proteasome) it was 50 ± 6 µM; at 20S brain proteasome (substrate Dabcyl-KQ10 PPD-EDANS, n.d. = not detected, read-out: IC50 of Dabcyl-KQ10 PPD-EDANS hydrolysis by 20S brain proteasome) it was 72 ± 8 µM; in [3] it was 2.8 ± 0.3 µM. In addition, the “Specific peptidase activity using Suc-LLVY-AMC” value in data set [4] was found to be 0.093 ± 0.003 nM/min/µg.

In the case of `CCCC[C@H](NC(=O)[C@@H]1CCCN1C(=O)OCc1ccccc1)C(=O)N[C@H](C=O)CC(=O)O` [Z-P-nLeu-D-CHO] (Cbz-Pro-[Nle]-Asp-aldehyde), the IC50 is 100 ± 10 µM in data set [1], 5.1 ± 0.3 µM in data set [2] and over 150 µM in data set [3].

Take Dabcyl-KQ5GD-EDANS: the cleaved bond result with 26S+11S is “Q2-Q3, major; also recorded: Q4-Q5, major”; with 20S+11S it was “Q2-Q3, major; also recorded: Q4-Q5, major”; with 26S proteasome it was “Q2-Q3, major; also recorded: Q4-Q5, major”; in the data set with 20S proteasome, “Q2-Q3, major; also recorded: Q4-Q5, major”.

For the compound Dabcyl-KQ10PPD-EDANS, the cleaved bond entry in the data set with 26S+11S is listed as “Q2-Q3, major; also recorded: Q3-Q4, major”; in the data set with 20S+11S, “Q2-Q3, major; also recorded: Q3-Q4, major”; in the data set on 26S proteasome, “Q2-Q3, major; also recorded: Q3-Q4, major”; in the data set on 20S proteasome it was “Q3-Q4, major, 2 h; also recorded: Q2-Q3, major, 2 h”.
